The values that follow come from PMC7488488 (Acta Pharmaceutica Sinica. B, 2019).

One assay addresses MDM2 (Homo sapiens, UniProt Q00987). The experiment in a line: TR-FRET. In kind it is binding. The note with it: for inhibition at 1 µM: read-out: Inhibition rate at 1.0 μmol/L, MDM2.
The test system of a further assay is U87MG cells. The assay can be described thus: MTT cell proliferation assay. The note with it: Homo sapiens, U-87 MG, 24 h, read-out: Anti-proliferative activity IC50, U87MG. In kind it is cell-based.
For the next assay, the system named is U251 cells. The assay can be described thus: MTT cell proliferation assay. In kind it is cell-based. The note with it: Homo sapiens, U-251, 24 h, read-out: Anti-proliferative activity IC50, U251.
The next assay relates to T98G cells. The assay can be described thus: MTT cell proliferation assay. In kind it is cell-based. The note with it: Homo sapiens, T98G, 24 h, read-out: Anti-proliferative activity IC50, T98G.

The structures appear in SMILES notation. Some results are limits rather than exact numbers.

Chain of MDM2 (Q00987 whole entry): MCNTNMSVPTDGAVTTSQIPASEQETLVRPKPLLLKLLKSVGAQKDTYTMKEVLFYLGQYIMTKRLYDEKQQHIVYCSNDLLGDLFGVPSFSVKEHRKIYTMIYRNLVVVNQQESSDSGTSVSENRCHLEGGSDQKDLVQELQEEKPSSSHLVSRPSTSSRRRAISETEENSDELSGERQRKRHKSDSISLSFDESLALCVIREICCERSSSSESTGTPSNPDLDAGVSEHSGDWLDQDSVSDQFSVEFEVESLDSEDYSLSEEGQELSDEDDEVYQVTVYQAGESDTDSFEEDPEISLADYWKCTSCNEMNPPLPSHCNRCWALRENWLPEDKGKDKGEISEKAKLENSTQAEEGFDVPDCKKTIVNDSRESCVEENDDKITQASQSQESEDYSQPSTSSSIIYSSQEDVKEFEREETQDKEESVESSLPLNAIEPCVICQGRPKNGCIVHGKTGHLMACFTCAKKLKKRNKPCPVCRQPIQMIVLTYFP

With `CCOC(=O)[C@H]1Cc2c(cc([N+](=O)[O-])cc2[N+](=O)[O-])[C@@H](O)[C@@]12C(=O)Nc1ccc(F)cc12` [4b, Ethyl (1′R,3R,3′S)-5-fluoro-1′-hydroxy-5′,7′-dinitro-2-oxo-3′,4′-dihydro-1′H-spiro[indoline-3,2′-naphthalene]-3′-carboxylate], the inhibition at 1 µM on MDM2 is 81.4 ± 10.2%. The IC50 in the assay on U87MG cells came to 25.7 ± 1.4 µM; in the assay on U251 cells, 32.6 ± 3.5 µM; with T98G cells it was 49 ± 6.3 µM.

Turning to `CCOC(=O)[C@H]1Cc2c(cc([N+](=O)[O-])cc2[N+](=O)[O-])[C@H](O)[C@]12C(=O)Nc1ccc(F)cc12` [4b′, Ethyl (1′S,3S,3′S)-5-fluoro-1′-hydroxy-5′,7′-dinitro-2-oxo-3′,4′-dihydro-1′H-spiro[indoline-3,2′-naphthalene]-3′-carboxylate], at MDM2, the inhibition at 1 µM was 55.6%. Further, the half-inhibitory concentration (IC50) in the assay with U87MG cells, in the assay with U251 cells and in the assay with T98G cells was above 50 µM throughout.

Regarding `CCOC(=O)[C@H]1Cc2c(cc([N+](=O)[O-])cc2[N+](=O)[O-])[C@@H](O)[C@@]12C(=O)Nc1c(F)cccc12` [4c, Ethyl (1′R,3R,3′S)-7-fluoro-1′-hydroxy-5′,7′-dinitro-2-oxo-3′,4′-dihydro-1′H-spiro[indoline-3,2′-naphthalene]-3′-carboxylate], the inhibition at 1 µM on MDM2 turned out to be 76.5 ± 13.7%. Further, the concentration for half-maximal inhibition (IC50) in the assay with U87MG cells turned out to be 19.4 ± 2.3 µM; in the assay on U251 cells it was 34.3 ± 4 µM; in the assay on T98G cells, 51.6 ± 6.2 µM.

Regarding `CCOC(=O)[C@H]1Cc2c(cc([N+](=O)[O-])cc2[N+](=O)[O-])[C@H](O)[C@]12C(=O)Nc1c(F)cccc12` [4c′, Ethyl (1′S,3S,3′S)-7-fluoro-1′-hydroxy-5′,7′-dinitro-2-oxo-3′,4′-dihydro-1′H-spiro[indoline-3,2′-naphthalene]-3′-carboxylate], the inhibition at 1 µM on MDM2 was 45.3%. Also, the figures for the IC50 with U87MG cells, with U251 cells and with T98G cells were 59.9 µM, above 50 µM and above 50 µM, respectively.

For the compound `CCOC(=O)[C@H]1Cc2c(cc([N+](=O)[O-])cc2[N+](=O)[O-])[C@@H](O)[C@@]12C(=O)Nc1ccc(Cl)cc12` [4d, Ethyl (1′R,3R,3′S)-5-chloro-1′-hydroxy-5′,7′-dinitro-2-oxo-3′,4′-dihydro-1′H-spiro[indoline-3,2′-naphthalene]-3′-carboxylate], the IC50 on MDM2 was found to be 520 ± 70 nM; with U87MG cells, 8.3 ± 1.5 µM; in the assay on U251 cells it was 17.8 ± 3.2 µM; in the assay on T98G cells, 21.6 ± 4.5 µM. In addition, the inhibition at 1 µM on MDM2 stood at 82.6 ± 8.4%.

As for `CCOC(=O)[C@H]1Cc2c(cc([N+](=O)[O-])cc2[N+](=O)[O-])[C@H](O)[C@]12C(=O)Nc1ccc(Cl)cc12` [4d′, Ethyl (1′S,3S,3′S)-5-chloro-1′-hydroxy-5′,7′-dinitro-2-oxo-3′,4′-dihydro-1′H-spiro[indoline-3,2′-naphthalene]-3′-carboxylate], the concentration for half-maximal inhibition (IC50) is 1800 ± 120 nM at MDM2, 60.4 µM in the assay on U87MG cells, above 50 µM in the assay on U251 cells and above 50 µM with T98G cells. Further, on MDM2, the inhibition at 1 µM is 54.2%.

On to `CCOC(=O)[C@H]1Cc2c(cc([N+](=O)[O-])cc2[N+](=O)[O-])[C@@H](O)[C@@]12C(=O)Nc1cc(Cl)ccc12` [4e, Ethyl (1′R,3R,3′S)-6-chloro-1′-hydroxy-5′,7′-dinitro-2-oxo-3′,4′-dihydro-1′H-spiro[indoline-3,2′-naphthalene]-3′-carboxylate], for which the inhibition at 1 µM at MDM2 is 76.4 ± 6%. In addition, the half-maximal inhibitory concentration (IC50) with U87MG cells amounted to 19.2 ± 4.4 µM; in the assay with U251 cells, 28.6 ± 2.9 µM; in the assay with T98G cells, 22.5 ± 4.2 µM.

As to `CCOC(=O)[C@H]1Cc2c(cc([N+](=O)[O-])cc2[N+](=O)[O-])[C@H](O)[C@]12C(=O)Nc1cc(Cl)ccc12` [4e′, Ethyl (1′S,3S,3′S)-6-chloro-1′-hydroxy-5′,7′-dinitro-2-oxo-3′,4′-dihydro-1′H-spiro[indoline-3,2′-naphthalene]-3′-carboxylate], at MDM2, the inhibition at 1 µM is 48.3%. Further, the 50% inhibitory concentration (IC50) in the assay with U87MG cells, in the assay on U251 cells and with T98G cells was above 50 µM throughout.
